Assay results from PubChem BioAssay (NCI).
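Following 48 hours of exposure in 96-well plates, responses at five concentrations were used to interpolate endpoints linearly. Abbreviation: GI50, concentration required for 50% inhibition of growth. The concentration for full growth arrest is given as TGI.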

Legend:
Assay in all cases: NCI anticancer screen, dose series, 48 h
EKVX NSCLC = system: EKVX NSCLC
IGROV1 ovarian = system: IGROV1 ovarian
SK-MEL-28 melanoma = system: SK-MEL-28 melanoma
BT-549 breast = system: BT-549 breast
PC-3 prostate = system: PC-3 prostate
MALME-3M melanoma = system: MALME-3M melanoma
SNB-19 CNS = system: SNB-19 CNS
TK-10 renal = system: TK-10 renal
KM12 colon = system: KM12 colon
HT29 colon = system: HT29 colon
HCC-2998 colon = system: HCC-2998 colon
SF-268 CNS = system: SF-268 CNS
SF-295 CNS = system: SF-295 CNS
COLO 205 colon = system: COLO 205 colon
UACC-257 melanoma = system: UACC-257 melanoma
SF-539 CNS = system: SF-539 CNS
OVCAR-8 ovarian = system: OVCAR-8 ovarian
U251 CNS = system: U251 CNS
SNB-75 CNS = system: SNB-75 CNS
A498 renal = system: A498 renal
ACHN renal = system: ACHN renal
RXF 393 renal = system: RXF 393 renal
SK-OV-3 ovarian = system: SK-OV-3 ovarian
786-0 renal = system: 786-0 renal
OVCAR-5 ovarian = system: OVCAR-5 ovarian
MCF7 breast = system: MCF7 breast
SR leukemia = system: SR leukemia
T-47D breast = system: T-47D breast
SK-MEL-2 melanoma = system: SK-MEL-2 melanoma
NCI-H522 lung = system: NCI-H522 lung
LOX IMVI melanoma = system: LOX IMVI melanoma
CAKI-1 renal = system: CAKI-1 renal
CCRF-CEM leukemia = system: CCRF-CEM leukemia
OVCAR-3 ovarian = system: OVCAR-3 ovarian
SK-MEL-5 melanoma = system: SK-MEL-5 melanoma
HOP-92 NSCLC = system: HOP-92 NSCLC
NCI-H226 lung = system: NCI-H226 lung
NCI-H460 lung = system: NCI-H460 lung
SN12C renal = system: SN12C renal
HOP-62 NSCLC = system: HOP-62 NSCLC
K-562 leukemia = system: K-562 leukemia
UACC-62 melanoma = system: UACC-62 melanoma
OVCAR-4 ovarian = system: OVCAR-4 ovarian
MOLT-4 leukemia = system: MOLT-4 leukemia
NCI-H23 lung = system: NCI-H23 lung
HS 578T breast = system: HS 578T breast
HL-60(TB) leukemia = system: HL-60(TB) leukemia

Q: For `ClC(Cl)c1nc(-c2ccccc2)n2nc(-c3ccccc3)cc2n1`, which GI50 (EKVX NSCLC) is on record?
A: The GI50 was 1940 nM.

Q: What about the TGI (EKVX NSCLC) of the same compound?
A: Its TGI is 5.75 µM.

Q: What about the GI50 (IGROV1 ovarian) of the same compound?
A: Its GI50 is 3.06 µM.

Q: And the TGI (IGROV1 ovarian)?
A: The TGI was > 100 µM.

Q: What about the GI50 (SK-MEL-28 melanoma) of the same compound?
A: The GI50 was 1650 nM.

Q: What about the TGI (SK-MEL-28 melanoma) of the same compound?
A: Its TGI is 3.1 µM.

Q: And the GI50 (BT-549 breast)?
A: The GI50 was > 100 µM.

Q: What about the TGI (BT-549 breast) of the same compound?
A: Its TGI is > 100 µM.

Q: And the GI50 (PC-3 prostate)?
A: Its GI50 is 1660 nM.

Q: And the TGI (PC-3 prostate)?
A: Its TGI is 4.73 µM.

Q: What about the GI50 (MALME-3M melanoma) of the same compound?
A: The GI50 was 3.3 µM.

Q: What about the TGI (MALME-3M melanoma) of the same compound?
A: Its TGI is > 100 µM.

Q: What about the GI50 (SNB-19 CNS) of the same compound?
A: Its GI50 is 1550 nM.

Q: And the TGI (SNB-19 CNS)?
A: The TGI was 6.85 µM.

Q: And the GI50 (TK-10 renal)?
A: Its GI50 is 1870 nM.

Q: What about the TGI (TK-10 renal) of the same compound?
A: The TGI was 5.7 µM.

Q: What about the GI50 (KM12 colon) of the same compound?
A: Its GI50 is 696 nM.

Q: What about the TGI (KM12 colon) of the same compound?
A: Its TGI is 2380 nM.

Q: What about the GI50 (HT29 colon) of the same compound?
A: Its GI50 is 442 nM.

Q: What about the TGI (HT29 colon) of the same compound?
A: The TGI was > 100 µM.

Q: What about the GI50 (HCC-2998 colon) of the same compound?
A: The GI50 was 573 nM.

Q: And the TGI (HCC-2998 colon)?
A: Its TGI is 2050 nM.

Q: What about the GI50 (SF-268 CNS) of the same compound?
A: The GI50 was 2280 nM.

Q: And the TGI (SF-268 CNS)?
A: Its TGI is > 100 µM.

Q: What about the GI50 (SF-295 CNS) of the same compound?
A: The GI50 was 1830 nM.

Q: What about the TGI (SF-295 CNS) of the same compound?
A: The TGI was 5.66 µM.

Q: And the GI50 (COLO 205 colon)?
A: The GI50 was 778 nM.

Q: And the TGI (COLO 205 colon)?
A: Its TGI is 3.42 µM.

Q: And the GI50 (UACC-257 melanoma)?
A: The GI50 was 2100 nM.

Q: And the TGI (UACC-257 melanoma)?
A: Its TGI is 5.19 µM.

Q: And the GI50 (SF-539 CNS)?
A: Its GI50 is 1780 nM.

Q: What about the TGI (SF-539 CNS) of the same compound?
A: The TGI was 5.57 µM.

Q: And the GI50 (OVCAR-8 ovarian)?
A: The GI50 was 1730 nM.

Q: What about the TGI (OVCAR-8 ovarian) of the same compound?
A: Its TGI is > 100 µM.

Q: What about the GI50 (U251 CNS) of the same compound?
A: The GI50 was 758 nM.

Q: And the TGI (U251 CNS)?
A: Its TGI is 6.44 µM.

Q: What about the GI50 (SNB-75 CNS) of the same compound?
A: The GI50 was 1120 nM.

Q: And the TGI (SNB-75 CNS)?
A: Its TGI is 5.24 µM.

Q: What about the GI50 (A498 renal) of the same compound?
A: The GI50 was 1310 nM.

Q: And the TGI (A498 renal)?
A: Its TGI is 2760 nM.

Q: What about the GI50 (ACHN renal) of the same compound?
A: Its GI50 is 572 nM.

Q: What about the TGI (ACHN renal) of the same compound?
A: Its TGI is 3.1 µM.

Q: What about the GI50 (RXF 393 renal) of the same compound?
A: The GI50 was 533 nM.

Q: And the TGI (RXF 393 renal)?
A: Its TGI is 2380 nM.

Q: And the GI50 (SK-OV-3 ovarian)?
A: The GI50 was 2700 nM.

Q: What about the TGI (SK-OV-3 ovarian) of the same compound?
A: Its TGI is 9.61 µM.

Q: What about the GI50 (786-0 renal) of the same compound?
A: Its GI50 is 8.7 µM.

Q: What about the TGI (786-0 renal) of the same compound?
A: Its TGI is > 100 µM.

Q: What about the GI50 (OVCAR-5 ovarian) of the same compound?
A: The GI50 was 2310 nM.

Q: And the TGI (OVCAR-5 ovarian)?
A: The TGI was 6.44 µM.

Q: What about the GI50 (MCF7 breast) of the same compound?
A: The GI50 was 1080 nM.

Q: What about the TGI (MCF7 breast) of the same compound?
A: The TGI was > 100 µM.

Q: And the GI50 (SR leukemia)?
A: The GI50 was 1020 nM.

Q: And the TGI (SR leukemia)?
A: Its TGI is 5.61 µM.

Q: What about the GI50 (T-47D breast) of the same compound?
A: Its GI50 is 2130 nM.

Q: What about the TGI (T-47D breast) of the same compound?
A: The TGI was > 100 µM.

Q: What about the GI50 (SK-MEL-2 melanoma) of the same compound?
A: Its GI50 is 31.6 µM.

Q: What about the TGI (SK-MEL-2 melanoma) of the same compound?
A: Its TGI is > 100 µM.

Q: And the GI50 (NCI-H522 lung)?
A: Its GI50 is 3.63 µM.

Q: What about the TGI (NCI-H522 lung) of the same compound?
A: Its TGI is > 100 µM.

Q: And the GI50 (LOX IMVI melanoma)?
A: Its GI50 is > 100 µM.

Q: What about the TGI (LOX IMVI melanoma) of the same compound?
A: Its TGI is > 100 µM.

Q: What about the GI50 (CAKI-1 renal) of the same compound?
A: Its GI50 is 1600 nM.

Q: What about the TGI (CAKI-1 renal) of the same compound?
A: Its TGI is 7.13 µM.

Q: What about the GI50 (CCRF-CEM leukemia) of the same compound?
A: Its GI50 is > 100 µM.

Q: And the TGI (CCRF-CEM leukemia)?
A: Its TGI is > 100 µM.

Q: What about the GI50 (OVCAR-3 ovarian) of the same compound?
A: The GI50 was 1040 nM.

Q: And the TGI (OVCAR-3 ovarian)?
A: Its TGI is 2680 nM.

Q: And the GI50 (SK-MEL-5 melanoma)?
A: Its GI50 is > 100 µM.

Q: What about the TGI (SK-MEL-5 melanoma) of the same compound?
A: Its TGI is > 100 µM.

Q: And the GI50 (HOP-92 NSCLC)?
A: The GI50 was 1410 nM.

Q: And the TGI (HOP-92 NSCLC)?
A: The TGI was 5.9 µM.

Q: What about the GI50 (NCI-H226 lung) of the same compound?
A: The GI50 was 48 µM.

Q: What about the TGI (NCI-H226 lung) of the same compound?
A: The TGI was > 100 µM.

Q: And the GI50 (NCI-H460 lung)?
A: Its GI50 is 411 nM.

Q: What about the TGI (NCI-H460 lung) of the same compound?
A: Its TGI is 1870 nM.

Q: And the GI50 (SN12C renal)?
A: Its GI50 is > 100 µM.

Q: What about the TGI (SN12C renal) of the same compound?
A: The TGI was > 100 µM.

Q: And the GI50 (HOP-62 NSCLC)?
A: The GI50 was 586 nM.

Q: What about the TGI (HOP-62 NSCLC) of the same compound?
A: Its TGI is 5.6 µM.

Q: What about the GI50 (K-562 leukemia) of the same compound?
A: The GI50 was 2590 nM.

Q: What about the TGI (K-562 leukemia) of the same compound?
A: The TGI was > 100 µM.

Q: What about the GI50 (UACC-62 melanoma) of the same compound?
A: Its GI50 is 3.5 µM.

Q: And the TGI (UACC-62 melanoma)?
A: Its TGI is > 100 µM.

Q: What about the GI50 (OVCAR-4 ovarian) of the same compound?
A: Its GI50 is 1650 nM.

Q: And the TGI (OVCAR-4 ovarian)?
A: Its TGI is 5.64 µM.

Q: What about the GI50 (MOLT-4 leukemia) of the same compound?
A: Its GI50 is 3.33 µM.

Q: And the TGI (MOLT-4 leukemia)?
A: The TGI was > 100 µM.

Q: And the GI50 (NCI-H23 lung)?
A: Its GI50 is 1420 nM.

Q: What about the TGI (NCI-H23 lung) of the same compound?
A: Its TGI is 4.09 µM.

Q: What about the GI50 (HS 578T breast) of the same compound?
A: The GI50 was 1910 nM.

Q: And the TGI (HS 578T breast)?
A: Its TGI is 6.46 µM.

Q: What about the GI50 (HL-60(TB) leukemia) of the same compound?
A: Its GI50 is 1650 nM.

Q: What about the TGI (HL-60(TB) leukemia) of the same compound?
A: The TGI was 7.69 µM.
